What was measured:
[1] = target: T1, Human recombinant MMP-13 (Homo sapiens, UniProt P45452); assay: In vitro MMP inhibition, Ki determination (fluorogenic substrate II); format: biochemical
T1 construct: made in house; host or cells: baculovirus / insect cells
Procedure, shortened: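 Baculovirus-expressed proenzyme, APMA-activated; 4 μM fluorogenic MCA/Dpa peptide substrate (II), at or below Km, in Tris buffer pH 7.5 with CaCl2, 1 hr at room temperature. Fluorescence at 330/420 nm; Ki from non-linear regression with Morrison's equation, not corrected for substrate.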

[2] = target: T2, Human recombinant MMP-1 (Homo sapiens, UniProt P03956); assay: as above; format: biochemical
T2 construct: made in house; host or cells: MMP-1-transfected HT-1080 cells (spent media)
T2 sequence (P03956 100-469): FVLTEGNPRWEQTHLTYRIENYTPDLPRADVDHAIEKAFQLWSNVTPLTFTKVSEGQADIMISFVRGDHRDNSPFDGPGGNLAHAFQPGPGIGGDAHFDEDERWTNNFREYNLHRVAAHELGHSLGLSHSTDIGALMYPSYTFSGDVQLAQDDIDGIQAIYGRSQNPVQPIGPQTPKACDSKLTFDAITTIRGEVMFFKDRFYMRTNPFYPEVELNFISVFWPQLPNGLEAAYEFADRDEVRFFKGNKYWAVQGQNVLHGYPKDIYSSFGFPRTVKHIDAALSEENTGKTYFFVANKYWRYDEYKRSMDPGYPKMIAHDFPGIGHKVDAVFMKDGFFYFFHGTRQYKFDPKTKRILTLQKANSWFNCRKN
Procedure, shortened: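 Activated human recombinant MMP-1 (APMA- or trypsin-activated; proenzyme from transfected HT-1080 cells) incubated 1 hr at room temperature with 4 μM MCA/Dpa fluorogenic substrate II at or below Km in Tris buffer pH 7.5 with CaCl2. Fluorescence ex 330/em 420 nm; Ki from Morrison-equation non-linear regression, uncorrected for substrate.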

[3] = substrate (II) 4 μM, 1 hr room temperature, apparent Ki, values in parenthesis

| SMILES | Ki ([1]; value in parentheses) | Ki ([2]; value in parentheses) | Ki ([1]; value in parenthesis) | Ki ([2]; value in parenthesis) | other results |
| --- | --- | --- | --- | --- | --- |
| O=C(NCCSc1ccc(S(=O)(=O)C2(C(=O)NO)CCN(C3CC3)CC2)cc1)c1nc2ccccc2s1 [Example 541] | 0.24 nM | > 10000 nM | – | – | – |
| O=C(NO)C1(S(=O)(=O)c2ccc(OCCCOc3cccnc3)cc2)CCOCC1 [Example 560] | 0.616 nM | > 10000 nM | – | – | – |
| COCCN1CCC(C(=O)NO)(S(=O)(=O)c2ccc(OCCc3ccc(-c4ccc(C#N)cc4)cc3)cc2)CC1 [Example 543] | 0.23 nM | > 10000 nM | – | – | – |
| C#Cc1ccc(-c2cccc(CCCOc3ccc(S(=O)(=O)C4(C(=O)NO)CCN(CCOC)CC4)cc3)c2)cc1 [Example 646] | 0.16 nM | > 10000 nM | – | – | – |
| COCCN1CCC(C(=O)NO)(S(=O)(=O)c2ccc(OCCc3cccc(-c4ccc(F)cc4F)c3)cc2)CC1 [Example 546] | 1.06 nM | > 10000 nM | – | – | – |
| CCN1CCC(C(=O)NO)(S(=O)(=O)c2ccc(OCCCc3cccc(-c4ccc(Cl)cc4)c3)cc2)CC1 [Example 526] | 3.96 nM | > 10000 nM | – | – | – |
| COCCN1CCC(C(=O)NO)(S(=O)(=O)c2ccc(OCCc3cccc(-c4ccccc4)c3)cc2)CC1 [Example 45] | – | – | – | – | Ki [1, 3]: 0.62 nM; Ki [2, 3]: > 10000 nM |
| COCCN1CCC(C(=O)NO)(S(=O)(=O)c2ccc(OCCCc3cccc(-c4ccc(C#N)cc4)c3)cc2)CC1 [Example 514] | 0.28 nM | > 10000 nM | – | – | – |
| CCC(=O)c1cccc(CCCOc2ccc(S(=O)(=O)C3(C(=O)NO)CCOCC3)cc2)c1 [Example 528] | 2.57 nM | > 10000 nM | – | – | – |
| O=C(NO)C1(S(=O)(=O)c2ccc(OCCc3cccnc3)cc2)CCOCC1 [Example 557] | 3.68 nM | > 10000 nM | – | – | – |
| O=C(NO)C1(S(=O)(=O)c2ccc(OCCc3cccc(-c4ccccc4Cl)c3)cc2)CCOCC1 [Example 114] | – | – | 4.2 nM | > 10000 nM | – |
| CCCCc1ccc(-c2noc(CCCOc3ccc(S(=O)(=O)C4(C(=O)NO)CCOCC4)cc3)n2)c(C)c1 [Example 183] | – | – | 15.1 nM | > 10000 nM | – |
| Cc1cc(-c2cccc(CCCOc3ccc(S(=O)(=O)C4(C(=O)NO)CCOCC4)cc3)c2)ccc1Cl [Example 166] | – | – | 63.4 nM | > 10000 nM | – |
| CC(C)c1ccc(-c2cccc(CCOc3ccc(S(=O)(=O)C4(C(=O)NO)CCOCC4)cc3)c2)cc1 [Example 109] | – | – | 93.1 nM | > 10000 nM | – |
| COCCN1CCC(C(=O)NO)(S(=O)(=O)c2ccc(OCCc3cccc(-c4ccccc4F)c3)cc2)CC1 [Example 540] | 0.58 nM | > 10000 nM | – | – | – |
| CCCCCCCOc1ccc(S(=O)(=O)C2(C(=O)NO)CCOCC2)cc1 [Example 507] | 0.19 nM | 3590 nM | – | – | – |
| O=C(NO)C1(S(=O)(=O)c2ccc(OCCc3cccc(-c4ccc(OC(F)(F)F)cc4)c3)cc2)CCOCC1 [Example 112] | – | – | 51.2 nM | > 10000 nM | – |
| NC(=O)c1cccc(-c2noc(CCCOc3ccc(S(=O)(=O)C4(C(=O)NO)CCN(C5CC5)CC4)cc3)n2)c1 [Example 129] | – | – | 0.27 nM | > 10000 nM | – |
| O=C(NO)C1(S(=O)(=O)c2ccc(OCCc3ccc(-c4cccc(O)c4)cc3)cc2)CCOCC1 [Example 532] | 1.02 nM | > 10000 nM | – | – | – |
| COc1ccc(-c2cccc(CCOc3ccc(S(=O)(=O)C4(C(=O)NO)CCOCC4)cc3)c2)cc1C [Example 119] | – | – | 31.4 nM | > 10000 nM | – |
| O=C(NO)C1(S(=O)(=O)c2ccc(OCCCc3nc(-c4ccc(OC(F)(F)F)cc4)no3)cc2)CCN(Cc2ccccc2)CC1 [Example 93] | – | – | 9.29 nM | > 10000 nM | – |
| O=C(NO)C1(S(=O)(=O)c2ccc(OCCCc3ccc(F)c(-c4ccccc4)c3)cc2)CCOCC1 [Example 504] | 4.65 nM | > 10000 nM | – | – | – |
| O=C(NO)C1(S(=O)(=O)c2ccc(OCCCc3cccc(-c4ccc(Cl)c(Cl)c4)c3)cc2)CCOCC1 [Example 169] | – | – | 20.4 nM | > 10000 nM | – |
| COCCN1CCC(C(=O)NO)(S(=O)(=O)c2ccc(OCCCc3nc(-c4cccc5ccccc45)no3)cc2)CC1 [Example 199] | – | – | 3.09 nM | > 10000 nM | – |
| COCCN1CCC(C(=O)NO)(S(=O)(=O)c2ccc(OCCCc3cccc(-c4ccc(F)c(F)c4)c3)cc2)CC1 [Example 52] | – | – | – | – | Ki [1, 3]: 0.81 nM; Ki [2, 3]: > 10000 nM |
| CCCc1ccc(CCCOc2ccc(S(=O)(=O)C3(C(=O)NO)CCOCC3)cc2)cn1 [Example 534] | 0.493 nM | > 10000 nM | – | – | – |
| COCCN1CCC(C(=O)NO)(S(=O)(=O)c2ccc(OCCCc3nc(-c4ccc(Br)cc4C)no3)cc2)CC1 [Example 135] | – | – | 0.761 nM | > 10000 nM | – |

| SMILES | Ki ([1]; value in parentheses) | Ki ([2]; value in parentheses) | Ki ([1]; value in parenthesis) | Ki ([2]; value in parenthesis) | other results |
| --- | --- | --- | --- | --- | --- |
| O=C(NO)C1(S(=O)(=O)c2ccc(OCCCc3nc(C4CCCCC4)no3)cc2)CCN(C2CC2)CC1 [Example 137] | – | – | 0.976 nM | > 10000 nM | – |
| O=C(NO)C1(S(=O)(=O)c2ccc(OCCCOc3cncnc3)cc2)CCOCC1 [Example 559] | 1.51 nM | > 10000 nM | – | – | – |
| COCCN1CCC(C(=O)NO)(S(=O)(=O)c2ccc(OCCc3cccc(-c4ccc(Cl)cc4)c3)cc2)CC1 [Example 547] | 2.28 nM | > 10000 nM | – | – | – |
| COCCN1CCC(C(=O)NO)(S(=O)(=O)c2ccc(OCCc3cccc(-c4cccc(F)c4)c3)cc2)CC1 [Example 545] | 1.11 nM | > 10000 nM | – | – | – |
| COCCN1CCC(C(=O)NO)(S(=O)(=O)c2ccc(OCCc3cccc(-c4ccncc4)c3)cc2)CC1 [Example 538] | 0.184 nM | > 10000 nM | – | – | – |
| CCc1ccc(COc2ccc(S(=O)(=O)C3(C(=O)NO)CCOCC3)cc2)cn1 [Example 552] | 1.78 nM | > 10000 nM | – | – | – |
| Cc1ccc(NC(=O)CCCOc2ccc(S(=O)(=O)C3(C(=O)NO)CCOCC3)cc2)cc1I [Example 527] | 0.044 nM | 5100 nM | – | – | – |
| O=C(NO)C1(S(=O)(=O)c2ccc(OCCc3cccc(-c4cc(F)cc(F)c4)c3)cc2)CCOCC1 [Example 110] | – | – | 11.4 nM | > 10000 nM | – |
| O=C(NCCOc1ccc(S(=O)(=O)C2(C(=O)NO)CCOCC2)cc1)c1c[nH]c2ccccc12 [Example 562] | 2.97 nM | 2740 nM | – | – | – |
| CCCc1ccc(COc2ccc(S(=O)(=O)C3(C(=O)NO)CCOCC3)cc2)cn1 [Example 550] | 0.52 nM | > 10000 nM | – | – | – |
| COCCN1CCC(C(=O)NO)(S(=O)(=O)c2ccc(OCCc3cccc(-c4ccc(F)cc4)c3)cc2)CC1 [Example 544] | 0.898 nM | > 10000 nM | – | – | – |
| COCCN1CCC(C(=O)NO)(S(=O)(=O)c2ccc(OCCc3cccc(-c4cccnc4)c3)cc2)CC1 [Example 539] | 0.21 nM | 9130 nM | – | – | – |
| CCCC(=O)CCCOc1ccc(S(=O)(=O)C2(C(=O)NO)CCOCC2)cc1 [Example 505] | 0.81 nM | 850 nM | – | – | – |
| COCCN1CCC(C(=O)NO)(S(=O)(=O)c2ccc(OCCCc3cccc(-c4ccccc4F)c3)cc2)CC1 [Example 512] | 1.07 nM | > 10000 nM | – | – | – |
| O=C(NO)C1(S(=O)(=O)c2ccc(OCCCc3cccc(-c4cc(Cl)cc(Cl)c4)c3)cc2)CCOCC1 [Example 172] | – | – | 71.1 nM | > 10000 nM | – |
| O=C(NO)C1(S(=O)(=O)c2ccc(OCCc3cccc(-c4ccc(Cl)c(Cl)c4)c3)cc2)CCOCC1 [Example 121] | – | – | 26.9 nM | > 10000 nM | – |
| COCCN1CCC(C(=O)NO)(S(=O)(=O)c2ccc(OCCCc3nc(-c4ccc(C5(c6ccccc6)CC5)cc4)no3)cc2)CC1 [Example 185] | – | – | 3.73 nM | > 10000 nM | – |
| COCCN1CCC(C(=O)NO)(S(=O)(=O)c2ccc(OCCc3cccc(-c4ccc(F)c(F)c4)c3)cc2)CC1 [Example 549] | 1.87 nM | > 10000 nM | – | – | – |
| Cc1ccccc1-c1cccc(CCOc2ccc(S(=O)(=O)C3(C(=O)NO)CCOCC3)cc2)c1 [Example 116] | – | – | 5.1 nM | > 10000 nM | – |
| COCCN1CCC(C(=O)NO)(S(=O)(=O)c2ccc(OCCCc3nc(-c4ccc(CC(C)C)cc4C)no3)cc2)CC1 [Example 128] | – | – | 13.8 nM | > 10000 nM | – |
| O=C(NO)C1(S(=O)(=O)c2ccc(OCCc3cccc(-c4cc(Cl)cc(Cl)c4)c3)cc2)CCOCC1 [Example 126] | – | – | 81.3 nM | > 10000 nM | – |
| COCCN1CCC(C(=O)NO)(S(=O)(=O)c2ccc(OCCCc3cncc(-c4ccccc4)c3)cc2)CC1 [Example 508] | 0.141 nM | 4850 nM | – | – | – |
| Cc1cc(-c2cccc(CCOc3ccc(S(=O)(=O)C4(C(=O)NO)CCOCC4)cc3)c2)ccc1Cl [Example 118] | – | – | 18.8 nM | > 10000 nM | – |
| O=C(NO)C1(S(=O)(=O)c2ccc(OCCc3cccc(-c4ccc(Cl)cc4Cl)c3)cc2)CCOCC1 [Example 124] | – | – | 20.1 nM | > 10000 nM | – |
| COCCN1CCC(C(=O)NO)(S(=O)(=O)c2ccc(OCCCc3cccc(-c4ccc(F)cc4F)c3)cc2)CC1 [Example 513] | 0.98 nM | > 10000 nM | – | – | – |
| COCCN1CCC(C(=O)NO)(S(=O)(=O)c2ccc(OCCCc3cccc(-c4cccs4)c3)cc2)CC1 [Example 510] | 0.25 nM | > 10000 nM | – | – | – |
| O=C(NCCSc1ccc(S(=O)(=O)C2(C(=O)NO)CCOCC2)cc1)c1nc2ccccc2s1 [Example 598] | 0.27 nM | > 10000 nM | – | – | – |

Source: patent US20040024024A1, “Aromatic sulfone hydroxamates and their use as protease inhibitors” (priority 2001, published 2004)
